Test results published in ChEMBL document CHEMBL5038642, “Synthesis and Antiviral Activities of Neoechinulin B and Its Derivatives” (J Nat Prod, 2022).
The source made the active and inactive calls. The rule behind the calls is not given here.

What was measured:
[1] = Cytotoxicity against African green monkey Vero E6 cells expressing TMPRSS2 assessed as reduction in cell viability incubated for 24 hrs by DAPI staining based confocal microscopic analysis; format: toxicity, Vero C1008; details: chlorocebus sabaeus
Hepatitis C virus = test: Antiviral activity against HCV JFH-1 infected in human Huh-7.5.1 cells assessed as reduction in viral replication measured after 72 hrs by chemiluminescent enzyme immunoassay; format: functional, organism-based, Hepacivirus hominis
Huh7.5.1 = test: Cytotoxicity against human Huh-7.5.1 cells assessed as reduction in cell viability measured at 72 hrs by MTT assay; format: functional
SARS-CoV-2 = test: Antiviral activity against SARS-CoV-2 WK-251 infected in African green monkey Vero E6 cells expressing TMPRSS2 assessed as reduction in viral RNA replication incubated for 24 hrs by qRT-PCR analysis; format: functional, organism-based, Severe acute respiratory syndrome coronavirus 2; details: for IC50: Severe acute respiratory syndrome coronavirus 2, WK-251, Vero C1008, 24 h
Huh-7.5.1 [2] = test: Antagonist activity at LXR (unknown origin) expressed in human Huh-7.5.1 cells transfected with luciferase reporter plasmid containing of LXRE assessed as reduction in T0901317-induced reporter activity at 30 uM measured after 48 hrs by luciferase reporter assay; format: cell-based
Huh-7.5.1 [3] = test: Antagonist activity at LXR (unknown origin) expressed in human Huh-7.5.1 cells transfected with luciferase reporter plasmid containing of LXRE assessed as reduction in T0901317-induced reporter activity at 10 uM measured after 48 hrs by luciferase reporter assay; format: cell-based; details: filed as antagonist
Huh-7.5.1 [4] = test: Antagonist activity at LXR (unknown origin) expressed in human Huh-7.5.1 cells transfected with luciferase reporter plasmid containing of LXRE assessed as reduction in T0901317-induced reporter activity at 5 uM measured after 48 hrs by luciferase reporter assay; format: cell-based; details: filed as antagonist

SMILES	CC50 (Huh7.5.1)	further results
C=c1[nH]c(=O)/c(=C/c2ccc3ccc4cccc5ccc2c3c45)[nH]c1=O	> 20 µM	CC50 at 24 h [1]: > 100 µM; IC50 (Hepatitis C virus; JFH-1, Huh-7.5.1, 72 h): 3.9 µM; IC90 (Hepatitis C virus; JFH-1, Huh-7.5.1, time 72 hrs): > 20 µM; IC50 (SARS-CoV-2): > 40 µM; IC90 (SARS-CoV-2; Severe acute respiratory syndrome coronavirus 2, WK-251, Vero C1008, time 24 hrs): > 40 µM
C=c1[nH]c(=O)/c(=C/c2ccc(-c3ccccc3)cc2)[nH]c1=O	> 20 µM	
C=c1[nH]c(=O)/c(=C/c2ccoc2)[nH]c1=O	> 20 µM	
C=c1[nH]c(=O)/c(=C/c2ccc3ccccc3c2)[nH]c1=O	> 20 µM	
C=c1[nH]c(=O)/c(=C/c2ccccc2)[nH]c1=O	> 20 µM	Activity (Huh-7.5.1 [2]): inactive
C=c1[nH]c(=O)/c(=C/c2ccc(OC)c(OC)c2)[nH]c1=O	> 20 µM	
C=c1[nH]c(=O)/c(=C/c2ccc(C(=O)OC)cc2)[nH]c1=O	> 20 µM	
C=c1[nH]c(=O)/c(=C/c2ccc(C)cc2)[nH]c1=O	> 20 µM	
C=CC(C)(C)c1[nH]c2ccccc2c1/C=c1\[nH]c(=O)c(=C)[nH]c1=O [NEOECHINULIN B]	> 20 µM	Activity (Huh-7.5.1 [3]): Active
C=c1[nH]c(=O)/c(=C/c2ccc(C(F)(F)F)cc2)[nH]c1=O	> 20 µM	IC50 (SARS-CoV-2): 9.1 µM
C=c1[nH]c(=O)/c(=C/c2ccc(OC)cc2)[nH]c1=O	> 20 µM	
C=c1[nH]c(=O)/c(=C/c2cc(C(C)(C)C)cc(C(C)(C)C)c2)[nH]c1=O	> 20 µM	
C=c1[nH]c(=O)/c(=C/c2ccsc2)[nH]c1=O	> 20 µM	
C=CC(C)(C)c1[nH]c2ccccc2c1C[C@@H]1NC(=O)[C@H](C)NC1=O [PREECHINULIN]	> 20 µM	
C=c1[nH]c(=O)/c(=C/c2cc(OC)c(OC)c(OC)c2)[nH]c1=O	> 20 µM	
C=CC(C)(C)c1[nH]c2ccccc2c1/C=C1\NC(=O)C(C)(OC)NC1=O (stereo not drawn) [VARIECOLORIN H]	> 20 µM	
C=c1[nH]c(=O)/c(=C/c2ccc(N(C)C)cc2)[nH]c1=O	> 20 µM	
C=c1[nH]c(=O)/c(=C/c2c[nH]c3ccccc23)[nH]c1=O	> 20 µM	
C=c1[nH]c(=O)/c(=C/c2ccc(C(C)(C)C)cc2)[nH]c1=O	> 20 µM	Activity (Huh-7.5.1 [4]): Active
